{"source": "patent US11911374B2", "about": "“Methods and uses for treating cancer” (NELUM CORPORATION, priority 2019, dated 2024)", "key": {"Smo": {"system": "Smo", "conditions": "preclinical pancreatic cancer models; cited from earlier work"}, "human Smo (hSmo)": {"molecular_target": "T1, human Smo (hSmo) (Homo sapiens, UniProt Q99835)", "T1 construct": "expressed in transfected cells; host or cells: 293T cells", "T1 sequence (Q99835 28-787)": "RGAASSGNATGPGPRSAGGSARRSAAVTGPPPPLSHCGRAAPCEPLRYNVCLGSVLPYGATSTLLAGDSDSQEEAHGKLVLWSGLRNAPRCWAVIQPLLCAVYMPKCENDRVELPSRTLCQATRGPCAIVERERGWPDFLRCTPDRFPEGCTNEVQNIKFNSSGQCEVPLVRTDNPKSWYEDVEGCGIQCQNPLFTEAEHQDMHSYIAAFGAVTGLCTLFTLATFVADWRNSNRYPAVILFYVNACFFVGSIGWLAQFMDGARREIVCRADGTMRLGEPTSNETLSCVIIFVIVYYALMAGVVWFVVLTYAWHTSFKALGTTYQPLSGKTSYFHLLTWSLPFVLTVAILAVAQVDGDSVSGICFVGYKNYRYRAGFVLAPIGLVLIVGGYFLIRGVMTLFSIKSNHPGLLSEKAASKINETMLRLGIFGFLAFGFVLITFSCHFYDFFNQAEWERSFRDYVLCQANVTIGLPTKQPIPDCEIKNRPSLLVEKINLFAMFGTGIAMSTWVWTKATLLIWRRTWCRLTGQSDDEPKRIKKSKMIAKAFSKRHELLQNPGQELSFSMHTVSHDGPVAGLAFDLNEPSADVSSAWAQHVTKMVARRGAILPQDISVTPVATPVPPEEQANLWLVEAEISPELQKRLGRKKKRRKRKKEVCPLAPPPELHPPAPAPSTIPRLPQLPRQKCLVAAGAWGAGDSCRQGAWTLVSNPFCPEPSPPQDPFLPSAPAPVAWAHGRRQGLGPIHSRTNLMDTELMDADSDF", "conditions": "293T cells overexpressing hSmo; read-out: IC50, inhibition of cyclopamine binding to human Smo; cited from earlier work"}, "P-glycoprotein (P-gp)": {"molecular_target": "T2, P-glycoprotein (P-gp) (Homo sapiens, UniProt P08183)", "T2 construct": "endogenous in cells; host or cells: Caco-2 cells", "T2 sequence (P08183 whole entry)": "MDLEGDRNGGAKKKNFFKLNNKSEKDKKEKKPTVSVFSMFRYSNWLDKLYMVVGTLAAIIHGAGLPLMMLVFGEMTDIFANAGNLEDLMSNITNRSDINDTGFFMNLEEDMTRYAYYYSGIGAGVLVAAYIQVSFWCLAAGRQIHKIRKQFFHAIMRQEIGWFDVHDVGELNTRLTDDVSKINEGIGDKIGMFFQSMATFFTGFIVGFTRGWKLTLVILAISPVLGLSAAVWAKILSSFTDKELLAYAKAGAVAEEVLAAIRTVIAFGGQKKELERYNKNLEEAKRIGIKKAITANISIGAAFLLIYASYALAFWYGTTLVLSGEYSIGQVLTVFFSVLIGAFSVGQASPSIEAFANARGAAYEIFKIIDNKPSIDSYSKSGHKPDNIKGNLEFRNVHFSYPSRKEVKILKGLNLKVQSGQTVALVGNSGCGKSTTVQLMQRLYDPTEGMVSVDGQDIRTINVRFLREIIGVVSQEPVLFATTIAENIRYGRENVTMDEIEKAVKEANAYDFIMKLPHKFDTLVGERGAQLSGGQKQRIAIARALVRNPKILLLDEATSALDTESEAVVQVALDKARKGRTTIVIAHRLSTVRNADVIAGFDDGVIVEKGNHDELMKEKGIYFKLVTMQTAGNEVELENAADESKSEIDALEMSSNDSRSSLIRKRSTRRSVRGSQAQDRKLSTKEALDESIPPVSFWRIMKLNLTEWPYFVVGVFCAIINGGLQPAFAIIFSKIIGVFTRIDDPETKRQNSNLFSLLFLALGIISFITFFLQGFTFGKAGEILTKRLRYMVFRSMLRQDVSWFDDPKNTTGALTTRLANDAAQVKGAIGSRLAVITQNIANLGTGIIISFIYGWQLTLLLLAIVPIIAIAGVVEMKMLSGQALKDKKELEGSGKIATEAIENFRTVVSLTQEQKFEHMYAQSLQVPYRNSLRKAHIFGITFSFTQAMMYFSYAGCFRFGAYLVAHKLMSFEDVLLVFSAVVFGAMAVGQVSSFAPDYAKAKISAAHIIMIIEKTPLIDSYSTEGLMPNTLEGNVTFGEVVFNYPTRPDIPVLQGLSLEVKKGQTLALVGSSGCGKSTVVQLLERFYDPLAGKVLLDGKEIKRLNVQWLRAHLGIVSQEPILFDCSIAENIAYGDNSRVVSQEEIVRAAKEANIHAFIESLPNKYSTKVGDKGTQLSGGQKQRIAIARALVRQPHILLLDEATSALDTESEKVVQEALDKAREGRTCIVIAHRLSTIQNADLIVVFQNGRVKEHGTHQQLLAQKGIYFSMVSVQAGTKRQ", "conditions": "cited from earlier work"}, "[1]": {"system": "Gli transcriptional activity", "conditions": "Gli-luc NIH3T3 cells; cited from earlier work"}, "[2]": {"conditions": "cited from earlier work"}, "Panc025": {"system": "Panc025", "experiment": "Panc025 PDAC subcutaneous xenograft model", "format": "in vivo, mice", "conditions": "Panc 025, nab-paclitaxel 50 mg/kg 1dq4×3, TAK-441 25 mg/kg daily p.o.", "description": "(§1) After several dose-finding studies to define the most feasible dose of nab-paclitaxel, a dose of 50 mg/kg 1dq4×3 was used. TAK-441 was selected and administered daily at the recommended dose (25 mg/kg daily p.o.). The study was conducted for 21 days. Based on the tumor volume values on experimental day 21, it was estimated the Tumor Growth Inhibition (TGI) factor as indicated in the Table 1. […] In order to evaluate the histological status of the stroma after treatment, Masson's Trichrome stained slides from Panc 163 and Panc 025 models were analyzed."}, "Gli1 mRNA": {"system": "Gli1 mRNA", "conditions": "MRC5 human embryonic fibroblasts; read-out: IC50, expression of Gli1 mRNA; cited from earlier work"}, "[3]": {"conditions": "rats, cited from earlier work"}, "[4]": {"system": "castration-resistant prostate cancer", "conditions": "murine castration-resistant prostate cancer models; cited from earlier work"}, "[5]": {"system": "medulloblastoma allograft", "conditions": "cited from earlier work"}, "CYP isozymes": {"system": "CYP isozymes", "conditions": "cited from earlier work"}, "[6]": {"conditions": "dogs, cited from earlier work"}, "[7]": {"set-up": "dose or concentration left out as unconfirmed", "conditions": "rats; cited from earlier work"}, "CYP2C8": {"molecular_target": "T3, CYP2C8 (Homo sapiens, UniProt P10632)", "T3 sequence (P10632 1-490)": "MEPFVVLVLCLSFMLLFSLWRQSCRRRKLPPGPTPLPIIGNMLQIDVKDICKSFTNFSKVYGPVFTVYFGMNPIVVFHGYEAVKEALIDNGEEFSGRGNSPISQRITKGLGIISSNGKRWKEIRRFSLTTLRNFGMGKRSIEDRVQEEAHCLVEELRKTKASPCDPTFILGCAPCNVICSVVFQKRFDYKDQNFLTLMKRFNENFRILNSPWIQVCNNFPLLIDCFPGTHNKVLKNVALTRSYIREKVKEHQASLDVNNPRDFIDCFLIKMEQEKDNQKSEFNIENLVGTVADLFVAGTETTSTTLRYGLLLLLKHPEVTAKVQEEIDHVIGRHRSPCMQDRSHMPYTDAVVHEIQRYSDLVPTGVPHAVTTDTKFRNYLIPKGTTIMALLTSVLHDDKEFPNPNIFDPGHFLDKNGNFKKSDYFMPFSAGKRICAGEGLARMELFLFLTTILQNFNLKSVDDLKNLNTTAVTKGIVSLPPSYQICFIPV", "conditions": "cited from earlier work"}, "[8]": {"set-up": "dose or concentration left out as unconfirmed", "conditions": "mice; cited from earlier work"}, "[9]": {"system": "human PDE4 phosphodiesterase", "set-up": "dose or concentration left out as unconfirmed", "conditions": "cited from earlier work"}, "[10]": {"conditions": "rats; cited from earlier work"}, "[11]": {"conditions": "cited from earlier work", "remark": "listed apart in the source"}, "[12]": {"system": "PAN-04 primary human pancreas xenograft", "conditions": "PAN-04 xenograft, cited from earlier work"}, "JH051": {"system": "JH051", "experiment": "JH051 PDAC subcutaneous xenograft model", "format": "in vivo, mice", "conditions": "JH 051, nab-paclitaxel 50 mg/kg 1dq4×3, TAK-441 25 mg/kg daily p.o.", "description": "After several dose-finding studies to define the most feasible dose of nab-paclitaxel, a dose of 50 mg/kg 1dq4×3 was used. TAK-441 was selected and administered daily at the recommended dose (25 mg/kg daily p.o.). The study was conducted for 21 days. Based on the tumor volume values on experimental day 21, it was estimated the Tumor Growth Inhibition (TGI) factor as indicated in the Table 1."}, "Caco-2 cells": {"system": "Caco-2 cells", "conditions": "cited from earlier work"}, "[13]": {"set-up": "dose or concentration left out as unconfirmed", "conditions": "dogs; cited from earlier work"}, "[14]": {"set-up": "dose or concentration left out as unconfirmed", "conditions": "human beings; cited from earlier work"}, "[15]": {"molecular_target": "human neurotransmitter dopamine transporter (Homo sapiens, UniProt Q01959)", "sequence (Q01959 whole entry)": "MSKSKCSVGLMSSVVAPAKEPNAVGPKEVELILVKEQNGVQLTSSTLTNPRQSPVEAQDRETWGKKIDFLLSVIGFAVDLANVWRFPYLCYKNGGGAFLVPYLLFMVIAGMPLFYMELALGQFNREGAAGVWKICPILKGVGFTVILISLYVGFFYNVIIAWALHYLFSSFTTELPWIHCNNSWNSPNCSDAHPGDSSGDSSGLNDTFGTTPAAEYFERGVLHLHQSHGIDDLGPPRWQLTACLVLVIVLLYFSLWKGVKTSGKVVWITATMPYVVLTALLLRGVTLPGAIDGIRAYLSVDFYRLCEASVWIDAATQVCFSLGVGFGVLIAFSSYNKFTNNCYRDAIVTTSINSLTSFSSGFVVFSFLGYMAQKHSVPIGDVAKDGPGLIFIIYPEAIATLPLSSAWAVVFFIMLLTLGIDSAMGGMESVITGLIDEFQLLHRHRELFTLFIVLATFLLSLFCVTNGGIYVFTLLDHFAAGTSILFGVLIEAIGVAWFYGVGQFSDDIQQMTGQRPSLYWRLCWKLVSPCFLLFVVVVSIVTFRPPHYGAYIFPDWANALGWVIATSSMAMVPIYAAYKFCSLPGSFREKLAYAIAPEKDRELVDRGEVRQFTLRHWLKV", "set-up": "dose or concentration left out as unconfirmed", "conditions": "cited from earlier work"}, "Panc163": {"system": "Panc163", "experiment": "Panc163 PDAC subcutaneous xenograft model", "format": "in vivo, mice", "conditions": "Panc 163, nab-paclitaxel 50 mg/kg 1dq4×3, TAK-441 25 mg/kg daily p.o.", "description": "as §1"}, "[16]": {"conditions": "exposures exceeding the predicted efficacious concentration"}}, "note": "Where two headings read alike, the source gives them in different places.", "data": [{"smiles": "CC1=C2C[C@H]3[C@@H](CC[C@@H]4C[C@H](NS(C)(=O)=O)CC[C@@]43C)[C@@H]2CC[C@@]2(C1)O[C@@H]1C[C@H](C)CN[C@H]1[C@H]2C", "note": "[IPI-926]", "values": [{"measurement": "stroma, tumor vascularization and effect of Gem chemotherapy", "setting": "Smo", "result": "selective stromal elimination, better tumor vascularization, and greater effect of Gem chemotherapy"}]}, {"smiles": "CCc1cc2c(c(OCC(F)(F)F)c(C(=O)NC3CCN(C(=O)CO)CC3)n2C)c(=O)n1CC(=O)c1ccccc1", "note": "[TAK-441, 6-ethyl-N-[1-(hydroxyacetyl)piperidin-4-yl]-1-methyl-4-oxo-5-(2-oxo-2-phenylethyl)-3-(2,2,2-triflurorethoxy)-4,5-dihydro-1H-pyrrolo[3,2-c]pyrdine-2-carboxamide]", "values": [{"measurement": "IC50", "setting": "human Smo (hSmo)", "result": 8.6, "unit": "nM"}, {"measurement": "substrate for P-glycoprotein (P-gp) flow pump", "setting": "P-glycoprotein (P-gp)", "result": "bad substrate"}, {"measurement": "IC50", "setting": "[1]", "result": 4.4, "unit": "nM"}, {"measurement": "CL", "setting": "[2]; dogs", "result": 6.632, "unit": "mL/min/kg"}, {"measurement": "distribution volume in steady state plasma (Vss)", "setting": "[2]; dogs", "result": 2.1813, "unit": "L/kg"}, {"measurement": "t %", "setting": "[2]; dogs", "result": 9.8, "unit": "h"}, {"measurement": "increase of degree of absorption, fed versus fasting (Cmax and AUC0-24 h)", "setting": "[2]; fed dogs compared with fasting dogs", "result": "approximately 2 times"}, {"measurement": "TGI (%) day 21 (1 − [Tf − Ti]/[Cf − Ci])", "setting": "Panc025", "result": 42, "unit": "%"}, {"measurement": "IC50", "setting": "Gli1 mRNA", "result": 1.9, "unit": "nM"}, {"measurement": "other findings of unknown relevance to humans", "setting": "[3]", "result": "gait alterations and tremors"}, {"measurement": "toxicological changes", "setting": "[3]; [16]", "result": "decreased body weight; atrophy of the growth plate in the ribs and hair follicles; erosion or ulceration of the gastric mucosa; anemia; necrosis and hypocellularity of the bone marrow as well as inflammation and hemorrhage in the lung"}, {"measurement": "tumor progression / paracrine Hh ligand signaling", "setting": "[4]", "result": "inhibit tumor progression"}, {"measurement": "Gli1 mRNA expression in tumor-associated stromal tissue", "setting": "[5]; Ohashi et al.", "result": "suppressed"}, {"measurement": "expression of Gli1 mRNA in vivo", "setting": "[5]; medulloblastoma allograft, mouse tumor", "result": "dose-dependent inhibition"}, {"measurement": "tumor activity", "setting": "[5]; medulloblastoma allograft, p<0.025", "result": "significant dose-dependent tumor activity"}, {"measurement": "tumor growth treatment/control ratio", "setting": "[5]; mouse medulloblastoma allograft model", "result": 3, "unit": "%"}, {"measurement": "inhibitory effect on other CYP isozymes", "setting": "CYP isozymes", "result": "no inhibitory effect"}, {"measurement": "time-dependent inhibition of CYP isoenzyme", "setting": "CYP isozymes; human liver microsomes", "result": "not a time-dependent inhibitor"}, {"measurement": "dose-limiting toxicities", "setting": "[6]", "result": "weight loss; decrease in food consumption; injuries of the gastrointestinal tract"}, {"measurement": "toxicological changes", "setting": "[6]; [16]", "result": "decreased body weight; atrophy of the growth plate in the ribs and hair follicles; erosion or ulceration of the gastric mucosa; anemia; necrosis and hypocellularity of the bone marrow as well as inflammation and hemorrhage in the lung"}, {"measurement": "binding to plasma proteins", "setting": "[7]", "result": 96.2, "unit": "%"}, {"measurement": "CYP2C8 inhibition", "setting": "CYP2C8", "result": "weak inhibitor"}, {"measurement": "binding to plasma proteins", "setting": "[8]", "result": 99.7, "unit": "%"}, {"measurement": "inhibition of human PDE4 phosphodiesterase", "setting": "[9]", "result": 67, "unit": "%"}, {"measurement": "CL", "setting": "[10]", "result": 2.688, "unit": "mL/min/kg"}, {"measurement": "distribution volume in steady state plasma (Vss)", "setting": "[10]", "result": 0.6816, "unit": "L/kg"}, {"measurement": "t %", "setting": "[10]", "result": 1.7, "unit": "h"}, {"measurement": "clinical response", "setting": "[11]; a patient with basal cell carcinoma", "result": "partial response"}, {"measurement": "mean Tmax", "setting": "[11]; after a single dose", "result": "1.8 to 4.2", "unit": "h"}, {"measurement": "mean Tmax", "setting": "[11]; after several doses", "result": "2.4 to 4.0", "unit": "h"}, {"measurement": "pharmacokinetics based on plasma concentration-time AUC", "setting": "[11]; dose range 50-1600 mg", "result": "linear over the entire dose range"}, {"measurement": "dose-limiting toxicities", "setting": "[11]; patients", "result": "muscle spasms and fatigue"}, {"measurement": "inhibition of Gli1 gene expression in skin biopsies", "setting": "[11]; patients", "result": "observed with all doses analyzed"}, {"measurement": "median elimination half-life", "setting": "[11]; patients", "result": "12.9 to 18.3", "unit": "h"}, {"measurement": "tolerability", "setting": "[11]; patients", "result": "well-tolerated"}, {"measurement": "expression of Gli1 mRNA in vivo", "setting": "[12]; stromal tumor associated", "result": "dose-dependent inhibition"}, {"measurement": "tumor activity", "setting": "[12]; p<0.025", "result": "significant dose-dependent tumor activity"}, {"measurement": "TGI (%) day 21 (1 − [Tf − Ti]/[Cf − Ci])", "setting": "JH051", "result": 15, "unit": "%"}, {"measurement": "Papp, A-to-B", "setting": "Caco-2 cells", "result": "19.6 '10-6 cm/sec"}, {"measurement": "binding to plasma proteins", "setting": "[13]", "result": 79.6, "unit": "%"}, {"measurement": "binding to plasma proteins", "setting": "[14]", "result": 87.7, "unit": "%"}, {"measurement": "inhibition of human dopamine transporter", "setting": "[15]", "result": 75, "unit": "%"}, {"measurement": "TGI (%) day 21 (1 − [Tf − Ti]/[Cf − Ci])", "setting": "Panc163", "result": 61, "unit": "%"}]}]}
